Test results from US9561289B2, “Peptides for inhibiting tumor growth” (OSPEDALE SAN RAFFAELE SRL, priority 2012, dated 2017).
Marks after values point to notes of the source that are not given here. Where a SMILES comes first, the peptide text is derived from it. Bridges are numbered along the chain shown (N, C = ends). The star is where a group is joined. X2 = O=C(O)C1CCC(CN2C(=O)CC(*)C2=O)CC1

What was measured:
αvβ3 = target: T1, αvβ3 (Homo sapiens, UniProt P05106+P06756); experiment: Competitive integrin binding assay (isoDGR/STV-HRP) on αvβ3-coated plates; conditions: for ratio of integrin Ki/αvβ3 Ki (αvβ3): number in parenthesis
T1 construct: purchased Immunological Sciences (Rome, Italy)
Procedure: (§1) A conjugate consisting of biotinylated acetyl-Ciso[…] (SEQ ID NO:36) peptide complexed with streptavidin-peroxidase conjugate (isoDGR/STV-HRP) was first prepared as described previously. […] Each mixture was then added to microtiter plates coated with integrins (αvβ3, αvβ5, αvβ6, […], or α5β1) and incubated for 2 h at room temperature. After washing, each well was incubated with 70 μl of chromogenic solution (o-phenylenediamine dihydrochloride) for 20 min, at room temperature. The chromogenic reaction was stopped by adding an equal volume of 1 N sulfuric acid. The absorbance at 490 nm was then measured using a microtiter plate reader.
(§2) The binding affinity and selectivity of each peptide for different integrins were then analyzed by competitive binding assay, using αvβ3-, αvβ5-, αvβ6-, αvβ8- and α5β1-coated plates and isoDGR/STV-HRP, an ac-isoDGR-2C/peroxidase complex, as competitor.

αvβ5 = target: T2, αvβ5 (Homo sapiens, UniProt P06756+P18084); experiment: Competitive integrin binding assay (isoDGR/STV-HRP) on αvβ5-coated plates; conditions: for ratio of integrin Ki/αvβ3 Ki (αvβ5): number in parenthesis
T2 construct: purchased Immunological Sciences (Rome, Italy)
Procedure: as §1, §2

αvβ6 = target: T3, αvβ6 (Homo sapiens, UniProt P06756+P18564); experiment: Competitive integrin binding assay (isoDGR/STV-HRP) on αvβ6-coated plates; conditions: for ratio of integrin Ki/αvβ3 Ki (αvβ6): number in parenthesis; for Ki: mean ± SE
T3 construct: purchased R&D System (Minneapolis, Minn.)
Procedure: as §1, §2

αvβ8 = target: T4, αvβ8 (Homo sapiens, UniProt P06756+P26012); experiment: Competitive integrin binding assay (isoDGR/STV-HRP) on αvβ8-coated plates; conditions: for ratio of integrin Ki/αvβ3 Ki (αvβ8): number in parenthesis
T4 construct: purchased R&D System (Minneapolis, Minn.)
Procedure: as §1, §2

α5β1 = target: T5, α5β1 (Homo sapiens, UniProt P05556+P08648); experiment: Competitive integrin binding assay (isoDGR/STV-HRP) on α5β1-coated plates; conditions: for ratio of integrin Ki/αvβ3 Ki (α5β1): number in parenthesis
T5 construct: purchased Immunological Sciences (Rome, Italy)
Procedure: as §1, §2

[1] = Asn deamidation of NGR peptides by mass spectrometry; type: physicochemical; conditions: 37° C., 0.1 M ammonium bicarbonate buffer, pH 8.5
Procedure: Orbitrap-ESI mass spectrometry analysis of NGR#3 and NGR-2C at various time points after incubation at 37° C. in 0.1 M ammonium bicarbonate buffer (Ambic), pH 8.5. During the analyses the NGR#3 forms dimers. +0 (no deamidation), +0.5 (one deamidation/molecule) and +1 (two deamidations/molecule) correspond to the difference between found and expected molecular masses in daltons.
It is well known that NGR may undergo Asn deamidation generating isoDGR, an integrin binding motif. To assess whether the molecular scaffold of NGR might affect the deamidation rate we analyzed the molecular masses of NGR#3 and […] (SEQ ID NO:37) (NGR-2C) before and after incubation at 37° C. in 0.1 M ammonium bicarbonate buffer, pH 8.5 (AmBic) for various times. […] The extent of binding of heat-treated NGR-HSA was very similar to that obtained with isoDGR#3-HSA, i.e. a conjugate prepared using a similar peptide having isoAsp in place of Asn (FIG. 17B, right).

[2] = tested on: EA.hy926 endothelial cells; experiment: Endothelial cell adhesion to vitronectin-coated plates; type: cell-based, human; conditions: EA.hy926, substance added to supernatant
Procedure: Endothelial cell (EA.hy926) adhesion to microtiter plates coated with human vitronectin was carried out as described ([25]). IsoDGR#1 and isoDGR#3 were added to the supernatant during cell adhesion. […] Mean±S.E (n=3).
Cell adhesion was quantified by spectrophotometric measurement (A570 nm).

Molecule	ratio of integrin Ki/αvβ3 Ki (αvβ3) (αvβ3)	ratio of integrin Ki/αvβ3 Ki (αvβ5) (αvβ5)	ratio of integrin Ki/αvβ3 Ki (αvβ6) (αvβ6)	ratio of integrin Ki/αvβ3 Ki (αvβ8) (αvβ8)	ratio of integrin Ki/αvβ3 Ki (α5β1) (α5β1)	other results
N=C(N)NCCC[C@@H]1NC(=O)CNC(=O)C[C@@H](C(=O)O)NC(=O)CNC(=O)[C@H](CSC2CC(=O)N(CC3CCC(C(=O)O)CC3)C2=O)NC(=O)CNC1=O (some centres unmarked) [isoDGR#1-P2] (GRGC(X2)GD-OH; lactam N-6)	(1)	(1.6)	(80)	(318)	(9.6)	–
CNGRCGVRY [NGR-2C, reference compound]	–	–	–	–	–	deamidation rate [1]: faster than that of NGR#3
N=C(N)NCCC[C@@H]1NC(=O)CNC(=O)C[C@@H](C(=O)O)NC(=O)[C@H](CSC2CC(=O)N(CC3CCC(C(=O)O)CC3)C2=O)NC(=O)CNC(=O)CNC1=O (stereo partly drawn) [isoDGR#3-P2] (GRGGC(X2)D-OH; lactam N-6)	(1)	–	(26)	(24)	–	Ki (αvβ6): 468 nM; Ki (αvβ8; mean ± SE): 430 nM
c(CNGRGG) (cyclic; Cyclic peptide) [NGR#3]	–	–	–	–	–	deamidation rate [1]: reduce the deamidation rate
N=C(N)NCCC[C@@H]1NC(=O)CNC(=O)C[C@@H](C(=O)O)NC(=O)CNC(=O)[C@H](CS)NC(=O)CNC1=O [isoDGR#1, c(CGisoDGRG)] (GRGCGD-OH; lactam N-6)	(1)^c	(2)	(14)	–	(3)	inhibition of endothelial cell adhesion to vitronectin [2]: could efficiently inhibit endothelial cell adhesion
N=C(N)NCCC[C@@H]1NC(=O)CNC(=O)C[C@@H](C(=O)O)NC(=O)[C@H](CS)NC(=O)CNC1=O [isoDGR#2, c(CisoDGRG)] (GRGCD-OH; lactam N-5)	(1)	(1)	(1.9)	(2.2)	(0.5)	–
*AV(0:1): sulfo-SMCC-activated avidin lacking the peptide [reference compound]	–	–	–	–	–	Ki (αvβ3; mean ± SE): > 2500 nM; Ki (αvβ5; mean ± SE): > 2500 nM; Ki (αvβ6): > 2500 nM; Ki (α5β1; mean ± SE): > 2500 nM
N=C(N)NCCC[C@@H]1NC(=O)CNC(=O)C[C@@H](C(=O)O)NC(=O)[C@H](CS)NC(=O)CNC(=O)CNC1=O [isoDGR#3, c(CisoDGRGG)] (GRGGCD-OH; lactam N-6)	(1)	(1)	(1.3)	(1.2)	(0.5)	inhibition of endothelial cell adhesion to vitronectin [2]: could efficiently inhibit endothelial cell adhesion
